Where “and” joins values, the source holds several entries; their conditions need not be identical. Equal values may be shown once. Read-outs that look alike come from different tables or passages of the source.
Legend:
[1] = molecular target: T1, CaBdf1 BD2 (Candida albicans, UniProt Q5A4W8); assay: HTRF assay, inhibition of H4ac4 peptide binding; set-up: species or system C. albicans
T1 construct: BD1 (residues 193–327) and BD2 (residues 361–501) from CaBdf1 (Uniprot ID Q5A4W8); made in house; host or cells: E. coli BL21(DE3)

[2] = molecular target: T2, Bdf1‐SmBiT/H2A.Z‐LgBiT pair (Saccharomyces cerevisiae, UniProt P35817); assay: NanoBiT assay; assay type: cell-based, S. cerevisiae; set-up: remaining activity: dose or concentration left out as unconfirmed
T2 construct: expressed in transfected cells; host or cells: S. cerevisiae (H2A.Z-LgBiT strain)
Description: (§1) Yeast strains were distributed in 96‐well microplates containing SC(MSG)‐U medium (SC‐U medium with 0.1% monosodium glutamate instead of ammonium sulfate as a nitrogen source) and grown at 30 °C. 40 µL of exponentially growing cells were transferred in white 96‐well half‐area microplates (ProxiPlate Plus, Greiner Bio‐One) previously filled with 40 µL per well of SC(MSG) containing 100 µM furimazine. The microplates were then incubated for 10 min in the dark before the luminescence signals were recorded using a microplate reader (Ensight, PerkinElmer). Luminescence measurements were performed for 1 s per well at a distance of 0.1 mm between the plate and the detector. The luminescence values were normalized with the optical density (OD600) of the corresponding cultures. For NanoBiT assays with BET inhibitors, yeast cultures were grown overnight at 30 °C in SC(MSG) medium in the presence of serial dilutions of 24c and I‐BET726. Overnight cultures were diluted 5 fold in SC(MSG) and incubated for 1 h before luminescence was recorded as previously indicated. Luminescence values for each condition were normalized using the average of the luminescence recorded for the Bdf1/Swc4 and Bmh1/Bmh2 controls.

[3] = system: Bmh1/Bmh2; assay: NanoBiT assay, control pair; assay type: cell-based, S. cerevisiae; set-up: Normalized nanoBiT signal: unit of the concentration uncertain
Description: as §1

[4] = system: C. glabrata strains expressing WT and mutant Bdf1; assay: Growth inhibition in liquid media, C. glabrata lab strains; conditions: for %Growth: WT BDF1-flag
Description: Growth on Liquid Media with C. glabrata Lab Strains: Cells were grown at 30 °C in SC+M+C‐U medium (SC medium with 5 mM methionine, 0.25 mM cysteine, without uracil) to an OD600 of 0.5–0.8. […] Plates were incubated at 30 °C and OD600 was measured using a Multiskan FC Microplate Photometer (Thermo Fisher).

T2 sequence (P35817 whole entry): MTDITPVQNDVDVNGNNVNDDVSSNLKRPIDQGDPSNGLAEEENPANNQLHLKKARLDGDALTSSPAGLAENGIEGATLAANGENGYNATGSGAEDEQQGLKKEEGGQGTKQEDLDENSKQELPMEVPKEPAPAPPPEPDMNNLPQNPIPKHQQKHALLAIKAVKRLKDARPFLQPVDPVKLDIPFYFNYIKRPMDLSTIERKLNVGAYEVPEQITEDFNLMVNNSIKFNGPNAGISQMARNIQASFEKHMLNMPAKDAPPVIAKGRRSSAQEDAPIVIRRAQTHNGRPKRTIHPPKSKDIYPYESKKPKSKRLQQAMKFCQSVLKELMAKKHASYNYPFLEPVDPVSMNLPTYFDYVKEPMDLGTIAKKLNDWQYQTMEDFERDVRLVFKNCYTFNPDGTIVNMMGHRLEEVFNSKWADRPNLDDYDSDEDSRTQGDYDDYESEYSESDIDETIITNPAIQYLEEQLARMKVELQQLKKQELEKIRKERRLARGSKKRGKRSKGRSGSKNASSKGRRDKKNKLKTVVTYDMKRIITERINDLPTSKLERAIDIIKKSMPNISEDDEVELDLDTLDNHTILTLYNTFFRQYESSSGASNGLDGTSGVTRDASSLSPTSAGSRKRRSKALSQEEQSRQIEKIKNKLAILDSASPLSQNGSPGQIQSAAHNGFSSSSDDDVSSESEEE
T1 sequence (Q5A4W8 361-501): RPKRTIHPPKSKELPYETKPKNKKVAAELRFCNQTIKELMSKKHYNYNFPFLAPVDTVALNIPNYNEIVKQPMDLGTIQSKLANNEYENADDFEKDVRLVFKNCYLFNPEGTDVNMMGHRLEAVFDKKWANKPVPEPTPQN

CC(=O)N1c2ccc(-c3ccc(C(=O)O)cc3)cc2C(Nc2ccc(Cl)cc2)CC1C (centres unmarked) [I-BET726]
remaining activity at 0.0021 µM ([1]; CaBD2, 2.10 nM, read-out: HTRF signal, normalized (Figure 5A data)): 108%
remaining activity at 0.01311 µM ([1]; CaBD2, 13.11 nM, read-out: HTRF signal, normalized (Figure 5A data)): 98.4%
remaining activity at 0.03277 µM ([1]; CaBD2, 32.77 nM, read-out: HTRF signal, normalized (Figure 5A data)): 95.1%
remaining activity at 0.2048 µM ([1]; CaBD2, 204.8 nM, read-out: HTRF signal, normalized (Figure 5A data)): 61.4%
remaining activity at 0.512 µM ([1]; CaBD2, 512 nM, read-out: HTRF signal, normalized (Figure 5A data)): 25.6%
remaining activity at 1.28 µM ([1]; CaBD2, 1280 nM, read-out: HTRF signal, normalized (Figure 5A data)): 11.4%
IC50 ([1]; Fig 5A, four replicates, read-out: IC50 (μM) BD2, C. alb. Bdf1): 0.63 ± 0.05 µM
remaining activity at 0.00524 µM ([1]; read-out: HTRF signal, normalized (Figure 5A data)): 102%
remaining activity at 24.41 µM ([2]; Bdf1-SmBiT, Htz1-LgBiT, 0.02441 mM, Fig 4C, read-out: Normalized nanoBiT signal): 92%
remaining activity at 97.66 µM ([2]; Bdf1-SmBiT, Htz1-LgBiT, 0.09766 mM, Fig 4C, read-out: Normalized nanoBiT signal): 93%
remaining activity at 195.31 µM ([2]; Bdf1-SmBiT, Htz1-LgBiT, 0.19531 mM, Fig 4C, read-out: Normalized nanoBiT signal): 96%
remaining activity at 390.63 µM ([2]; Bdf1-SmBiT, Htz1-LgBiT, 0.39063 mM, Fig 4C, read-out: Normalized nanoBiT signal): 92%
remaining activity at 781.25 µM ([2]; Bdf1-SmBiT, Htz1-LgBiT, 0.78125 mM, Fig 4C, read-out: Normalized nanoBiT signal): 83%
remaining activity at 1562.5 µM ([2]; Bdf1-SmBiT, Htz1-LgBiT, 1.56250 mM, Fig 4C, read-out: Normalized nanoBiT signal): 65%
remaining activity at 3125 µM ([2]; Bdf1-SmBiT, Htz1-LgBiT, 3.12500 mM, Fig 4C, read-out: Normalized nanoBiT signal): 46%
remaining activity ([2]; Bdf1-SmBiT, Htz1-LgBiT, […], Fig 4C, read-out: Normalized nanoBiT signal): 39%
IC50 ([2]; mean and s.d., 4 independent experiments, read-out: IC50 (μM) (ScBdf1 / H2A.Z) NanoBiT signal): 2.1 µM
remaining activity at 48.83 µM ([2]; read-out: Normalized nanoBiT signal): 96%
Normalized nanoBiT signal [3]: 108% and 107% and 96% and 97%
Normalized nanoBiT signal ([3]; Bmh1-LgBiT, Bmh2-SmBiT, 0.02441 (unit uncertain), Fig 4C): 104% and 103% and 105% and 97%
Normalized nanoBiT signal ([3]; Bmh1-LgBiT, Bmh2-SmBiT, 0.09766 (unit uncertain), Fig 4C): 105% and 106% and 103% and 100%
Normalized nanoBiT signal ([3]; Bmh1-LgBiT, Bmh2-SmBiT, 0.19531 (unit uncertain), Fig 4C): 105% and 94% and 98%
Normalized nanoBiT signal ([3]; Bmh1-LgBiT, Bmh2-SmBiT, 0.39063 (unit uncertain), Fig 4C): 110% and 103% and 98% and 96%
Normalized nanoBiT signal ([3]; Bmh1-LgBiT, Bmh2-SmBiT, 0.78125 (unit uncertain), Fig 4C): 109% and 110% and 93% and 102%
Normalized nanoBiT signal ([3]; Bmh1-LgBiT, Bmh2-SmBiT, 1.56250 (unit uncertain), Fig 4C): 115% and 111% and 95% and 99%
Normalized nanoBiT signal ([3]; Bmh1-LgBiT, Bmh2-SmBiT, 3.12500 (unit uncertain), Fig 4C): 112% and 118% and 104% and 101%
inhibition of NanoBiT signal, Bmh1/Bmh2 ([3]; unrelated control pair): not observed
%Growth ([4]; Fig 3E, 50 µM, Exp 1-3): 24% and 29% and 27%
%Growth ([4]; Fig 3F, 0.0412 µM): 86.79% and 92.92% and 93.05%
%Growth ([4]; Fig 3F, 0.1235 µM): 78.65% and 90.9% and 90.48%
%Growth ([4]; Fig 3F, 0.3704 µM): 70.78% and 76.63% and 84.08%
%Growth ([4]; Fig 3F, 1.1111 µM): 65.69% and 73.22% and 70.81%
%Growth ([4]; Fig 3F, 3.3333 µM): 37.23% and 49.84% and 57.55%
%Growth ([4]; Fig 3F, 10 µM): 20.2% and 22.05% and 23.51%
EC50 ([4]; Nakaseomyces glabratus, read-out: EC50 (μM) growth inhibition, Fig 3F, strain BDF1-FLAG (WT Bdf1)): 3.24 ± 0.75 µM
EC50 ([4]; Nakaseomyces glabratus, read-out: EC50 (μM) growth inhibition, strain bdf1-Y166F (active BD: BD2)): 1.98 ± 0.36 µM
EC50 ([4]; Nakaseomyces glabratus, read-out: EC50 (μM) growth inhibition, strain bdf1-Y343F (active BD: BD1)): ~25 µM
EC50 ([4]; Nakaseomyces glabratus, read-out: EC50 (μM) growth inhibition, strain bdf1-bd1Δ (active BD: BD2)): 1.17 ± 0.1 µM
EC50 ([4]; Nakaseomyces glabratus, read-out: EC50 (μM) growth inhibition, strain bdf1-bd2Δ (active BD: BD1)): 13.7 ± 4.9 µM
Growth (%) ([4]; WT BDF1, 20 µM, Fig 5B): 34%
EC50 ([4]; read-out: EC50 (μM) growth inhibition, Fig 3F, strain BDF1-FLAG (WT Bdf1)): 3 µM and 3.2 µM
